Test results as given in PubChem BioAssay (NCI).
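How tested: cells in 96-well plates exposed to compound for 48 hours at five concentrations. At the TGI there is no net growth.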

Assays:
Assay in all cases: NCI tumour cell line growth inhibition, 48 h
MDA-MB-435 = system: MDA-MB-435
HOP-92 NSCLC = system: HOP-92 NSCLC
HT29 colon = system: HT29 colon
SNB-19 CNS = system: SNB-19 CNS
MCF7 breast = system: MCF7 breast
BT-549 breast = system: BT-549 breast
EKVX NSCLC = system: EKVX NSCLC
M14 melanoma = system: M14 melanoma
SK-MEL-2 melanoma = system: SK-MEL-2 melanoma
SK-MEL-5 melanoma = system: SK-MEL-5 melanoma

Structure (SMILES)	TGI (MDA-MB-435)	TGI (HOP-92 NSCLC)	TGI (HT29 colon)	TGI (SNB-19 CNS)	TGI (MCF7 breast)	TGI (BT-549 breast)	TGI (EKVX NSCLC)	TGI (M14 melanoma)	TGI (SK-MEL-2 melanoma)	TGI (SK-MEL-5 melanoma)
COc1cc2c(c(OC)c1OC)C(=O)c1c(O)cc(C)c(OC)c1C2=O	> 100 µM	> 100 µM	> 100 µM	> 100 µM	> 100 µM	> 100 µM	> 100 µM	> 100 µM	> 100 µM	> 100 µM
COC(=O)[C@@H]1c2c(oc3cc(CO)cc(O)c3c2=O)C=C[C@H]1O	15.5 µM	22.4 µM	14.2 µM	33.5 µM	12 µM	12.4 µM	27.4 µM	19.8 µM	28.9 µM	28.5 µM
Clc1ccc(-c2cn3c(nc4ccccc43)c(-c3ccccc3)n2)cc1	> 100 µM	40.9 µM	> 67.5 µM	32.6 µM	> 100 µM	50.2 µM	> 100 µM	> 87.4 µM	38.8 µM	46.5 µM
CO[C@@]12C[C@H](CNC(=O)c3ccc[nH]3)O[C@@H]1NC(=O)N2	> 100 µM	> 100 µM	> 100 µM	> 100 µM	> 100 µM	> 100 µM	> 100 µM	> 100 µM	> 100 µM	> 100 µM
CCOC(=O)C(O)(CC1=NC(C(=O)OC)(C(=O)OC)C(c2cccc(C=O)c2)O1)C(=O)OCC (stereo not given)	> 100 µM	> 100 µM	> 100 µM	> 100 µM	> 100 µM	> 100 µM	> 100 µM	> 100 µM	> 100 µM	> 100 µM
COCN1C(=O)[C@@H]2CCCN2C(=O)c2ccc(N)cc21	> 100 µM	> 100 µM	> 100 µM	> 100 µM	> 100 µM	> 100 µM	> 100 µM	> 100 µM	> 100 µM	> 100 µM
O=c1c(-c2nc3ccccc3c3ccccc3c2=O)nc2ccccc2c2ccccc12	89 µM	> 100 µM	> 100 µM	> 100 µM	> 100 µM	> 100 µM	> 100 µM	> 100 µM	> 100 µM	86.2 µM
Cc1sc(/N=C/C2=C(O)CC(C)(C)CC2=O)nc1-c1ccccc1	> 100 µM	> 100 µM	> 100 µM	> 100 µM	> 100 µM	> 100 µM	> 100 µM	> 100 µM	> 100 µM	> 100 µM
CC(=O)OCC1OC(OCCCOP(=O)(OCCC#N)OCC2OC(n3cnc4c(N)ncnc43)C(OC(=O)c3ccccc3)C2OC(=O)c2ccccc2)C(OC(C)=O)C(OC(C)=O)C1OC(C)=O (stereo not given)	> 100 µM	> 100 µM	> 100 µM	> 100 µM	> 100 µM	> 100 µM	> 100 µM	> 100 µM	> 100 µM	> 100 µM
OCCc1ccsc1-c1sc(-c2cc(CCO)c(-c3sc(-c4cc(CCO)c(-c5sccc5CCO)s4)cc3CCO)s2)cc1CCO	3.39 µM	2.89 µM	3.99 µM	3.01 µM	1.95 µM	2.21 µM	2.91 µM	3.36 µM	3.35 µM	3.01 µM
Cc1nc2ccc(NCCN(C)C)c3c(=O)c4ccccc4n1c23	16.1 µM	14.2 µM	10.8 µM	47.8 µM	23.3 µM	23.6 µM	14.2 µM	16.4 µM	18.8 µM	8.95 µM
CN(C)S(=O)(=O)c1ccc2[nH]c(O)c(C3=Nc4ccccc4C3=O)c2c1	> 100 µM	46.8 µM	> 100 µM	42.6 µM	> 100 µM	28.9 µM	> 100 µM	> 100 µM	44.7 µM	> 100 µM
CCOP1(=O)CC(C)=C(Cl)C(OC)C1 (stereo not given)	> 100 µM	> 100 µM	> 100 µM	> 100 µM	> 100 µM	> 100 µM	> 100 µM	> 100 µM	> 100 µM	> 100 µM
COc1ccc(-c2nc3ccccc3c(=O)[nH]2)cc1	> 100 µM	> 100 µM	> 100 µM	> 100 µM	> 100 µM	> 100 µM	> 100 µM	> 100 µM	> 100 µM	> 100 µM
O=C1Cc2cc3ccccc3nc2-c2ccccc2N1	> 100 µM	> 100 µM	> 100 µM	> 100 µM	> 100 µM	> 100 µM	> 100 µM	> 100 µM	> 100 µM	> 100 µM
CC(=O)c1csc2c1C(=O)c1ccccc1C2=O	3.97 µM	89.1 µM	4.5 µM	5.06 µM	5.22 µM	3.01 µM	18.6 µM	2.65 µM	10.6 µM	0.376 µM

Structure (SMILES)	TGI (MDA-MB-435)	TGI (HOP-92 NSCLC)	TGI (HT29 colon)	TGI (SNB-19 CNS)	TGI (MCF7 breast)	TGI (BT-549 breast)	TGI (EKVX NSCLC)	TGI (M14 melanoma)	TGI (SK-MEL-2 melanoma)	TGI (SK-MEL-5 melanoma)
CCOC(=O)[C@@]12C[C@](/C=C/OC)(O[Si](C)(C)C)[C@@]13c1cc(OC)c(OC)cc1CCN3C(=O)C2=O	> 100 µM	> 100 µM	> 100 µM	> 100 µM	> 100 µM	> 100 µM	> 100 µM	> 100 µM	> 100 µM	> 100 µM
CCOc1ccc2nc(NC(=O)C(=O)C3C(=O)C(CC4C(=O)c5ccccc5C4=O)C(=O)CC3(C)C)sc2c1 (stereo not given)	> 100 µM	> 100 µM	> 100 µM	> 100 µM	> 100 µM	> 100 µM	> 100 µM	> 100 µM	> 100 µM	> 100 µM
CC(C)c1cc(=O)[nH]c2cc(N)ccc12	> 100 µM	> 100 µM	> 100 µM	> 100 µM	> 100 µM	> 100 µM	> 100 µM	> 100 µM	> 100 µM	> 100 µM
Cc1ccc(C2=CC(=O)/C(=C\C(=O)c3ccc(Br)cc3)O2)c(C)c1	38.7 µM	19.4 µM	17.6 µM	> 49.1 µM	23.8 µM	16.2 µM	> 67.7 µM	35.3 µM	> 100 µM	41.5 µM
CC(=O)OC1CCn2c1nc1cc([N+](=O)[O-])c(C)cc12 (stereo not given)	> 100 µM	> 100 µM	> 100 µM	> 100 µM	> 100 µM	> 100 µM	> 100 µM	> 100 µM	> 100 µM	> 100 µM
COC(=O)c1ccccc1C1CN=NC12Cc1ccc(C)cc1C2=O (stereo not given)	> 100 µM	> 100 µM	> 100 µM	> 100 µM	> 100 µM	> 100 µM	> 100 µM	> 100 µM	> 100 µM	> 100 µM
NC(=S)NNCC(=O)CC(O)(C(F)(F)F)C(F)(F)Cl (stereo not given)	> 100 µM	> 100 µM	> 100 µM	> 100 µM	> 100 µM	> 100 µM	> 100 µM	> 100 µM	> 100 µM	> 100 µM
Nc1nc(N)c2nc(CN(C=O)c3ccc(C(=O)O)cc3)cnc2n1	> 100 µM	> 100 µM	> 100 µM	> 100 µM	> 100 µM	> 94.7 µM	> 100 µM	> 100 µM	> 100 µM	> 100 µM
Cc1cccc2c(=O)c3c(O)cc(O)cc3n(C)c12	> 100 µM	> 100 µM	> 100 µM	> 100 µM	> 100 µM	> 100 µM	> 100 µM	> 100 µM	> 100 µM	> 100 µM
CCN(CC)c1c(C(C)(C)C)c(=O)n2ccsc2c1OC(C)=O	32.5 µM	31.2 µM	28.4 µM	30.4 µM	28.9 µM	30.3 µM	29.3 µM	31.2 µM	31 µM	32.2 µM
O=C1c2cc3c(cc2NC(c2ccccc2F)C1O)OCO3 (stereo not given)	13.6 µM	> 100 µM	43.3 µM	> 56.1 µM	> 100 µM	> 100 µM	> 70.8 µM	> 100 µM	> 100 µM	> 100 µM
NC(CCC(=O)c1ccccn1)C(=O)O (stereo not given)	> 100 µM	> 100 µM	> 100 µM	> 100 µM	> 100 µM	> 100 µM	> 100 µM	> 100 µM	> 100 µM	> 100 µM
CC(=O)N[C@@H](Cc1ccc(O)cn1)C(=O)NCc1ccc(Cl)cc1	> 100 µM	> 100 µM	> 100 µM	> 100 µM	> 100 µM	> 100 µM	> 100 µM	> 100 µM	> 100 µM	> 100 µM
COc1cc(/C=C(\C)[N+](=O)[O-])cc(OC)c1	28.3 µM	28.2 µM	38.5 µM	> 56.2 µM	21.1 µM	33.6 µM	33.9 µM	28.2 µM	34.9 µM	31.7 µM
COC(=O)c1ccccc1CC1Cc2c(C)ccc(C)c2C1=O (stereo not given)	59.7 µM	54.4 µM	61.6 µM	> 100 µM	30 µM	> 100 µM	> 100 µM	> 100 µM	38.4 µM	34 µM
CC(=O)O[C@H]1[C@@H](N2CCOCC2)C[C@H]2[C@@H]3CC=C4C[C@@H](N5CCCC5)CC[C@]4(C)[C@H]3CC[C@@]21C	> 100 µM	> 100 µM	> 100 µM	> 100 µM	> 100 µM	> 100 µM	> 100 µM	> 100 µM	> 100 µM	> 100 µM
